# In patent US11230535B2, “CFTR regulators and methods of use thereof” (THE REGENTS OF THE UNIVERSITY OF CALIFORNIA, priority 2015, dated 2022):
# Entries after “also recorded” stand apart in the source; their conditions may differ.
# Experiments:
# cAMP = assay: Cellular cAMP immunoassay in CFTR-expressing FRT cells; type: cell-based, rat; details: 10 μM, 10 min
# Experimental: (§1) cAMP and Ca^2+ assays. FRT cells expressing wildtype CFTR were cultured in 12-well plates. After washing with PBS, cells were incubated for 10 min with compounds in the absence or presence of 90 nM forskolin and then lysed. Lysates were assayed for cAMP content using a cAMP immunoassay kit (Parameter cAMP Immunoassay Kit, R&D Systems, Minneapolis, Minn.). For cytoplasmic calcium measurements, FRT cells in 96-well black-walled microplates were loaded with Fluo-4 NW (Invitrogen, Carlsbad, Calif.) and Fluo-4 fluorescence was measured with a plate reader equipped with syringe pumps and monochromators.
# CaCC in HT-29 cells = assay: Non-TMEM16A CaCC plate reader assay in HT-29 cells expressing YFP; type: cell-based; details: 10 μM
# Experimental: Platereader assays of chloride channel function. CFTR activity was assayed as described. FRT cells co-expressing YFP and wildtype CFTR were washed with phosphate-buffered saline (PBS) and then incubated for 10 min with test compounds in PBS containing 125 nM forskolin. I^− influx was measured in a plate reader with initial baseline read for 2 s and then for 12 s after rapid addition of an I^−-containing solution. TMEM16A activity was assayed similarly as described using FRT cells co-expressing YFP and TMEM16A. Activity of non-TMEM16A CaCC was assayed as described in HT-29 cells expressing YFP. In each assay initial rates of I^− influx were computed as a linear measure of channel function.
# cytoplasmic calcium = assay: Cytoplasmic calcium by Fluo-4 fluorescence in FRT cells; type: cell-based, rat; details: 10 μM; for inhibition of the ATP-stimulated elevation in cytoplasmic calcium: 100 μM ATP
# Experimental: as §1
# ΔF508-CFTR = target: T1, ΔF508-CFTR (Homo sapiens, UniProt P13569, DEL508-508); assay: Short-circuit current in FRT cells expressing ΔF508-CFTR after corrector (VX-809); type: cell-based; details: overnight corrector
# T1 construct: expressed in transfected cells; host or cells: Fischer rat thyroid (FRT) cells
# T1 sequence (P13569 with tags, fused parts or gaps DEL508-508): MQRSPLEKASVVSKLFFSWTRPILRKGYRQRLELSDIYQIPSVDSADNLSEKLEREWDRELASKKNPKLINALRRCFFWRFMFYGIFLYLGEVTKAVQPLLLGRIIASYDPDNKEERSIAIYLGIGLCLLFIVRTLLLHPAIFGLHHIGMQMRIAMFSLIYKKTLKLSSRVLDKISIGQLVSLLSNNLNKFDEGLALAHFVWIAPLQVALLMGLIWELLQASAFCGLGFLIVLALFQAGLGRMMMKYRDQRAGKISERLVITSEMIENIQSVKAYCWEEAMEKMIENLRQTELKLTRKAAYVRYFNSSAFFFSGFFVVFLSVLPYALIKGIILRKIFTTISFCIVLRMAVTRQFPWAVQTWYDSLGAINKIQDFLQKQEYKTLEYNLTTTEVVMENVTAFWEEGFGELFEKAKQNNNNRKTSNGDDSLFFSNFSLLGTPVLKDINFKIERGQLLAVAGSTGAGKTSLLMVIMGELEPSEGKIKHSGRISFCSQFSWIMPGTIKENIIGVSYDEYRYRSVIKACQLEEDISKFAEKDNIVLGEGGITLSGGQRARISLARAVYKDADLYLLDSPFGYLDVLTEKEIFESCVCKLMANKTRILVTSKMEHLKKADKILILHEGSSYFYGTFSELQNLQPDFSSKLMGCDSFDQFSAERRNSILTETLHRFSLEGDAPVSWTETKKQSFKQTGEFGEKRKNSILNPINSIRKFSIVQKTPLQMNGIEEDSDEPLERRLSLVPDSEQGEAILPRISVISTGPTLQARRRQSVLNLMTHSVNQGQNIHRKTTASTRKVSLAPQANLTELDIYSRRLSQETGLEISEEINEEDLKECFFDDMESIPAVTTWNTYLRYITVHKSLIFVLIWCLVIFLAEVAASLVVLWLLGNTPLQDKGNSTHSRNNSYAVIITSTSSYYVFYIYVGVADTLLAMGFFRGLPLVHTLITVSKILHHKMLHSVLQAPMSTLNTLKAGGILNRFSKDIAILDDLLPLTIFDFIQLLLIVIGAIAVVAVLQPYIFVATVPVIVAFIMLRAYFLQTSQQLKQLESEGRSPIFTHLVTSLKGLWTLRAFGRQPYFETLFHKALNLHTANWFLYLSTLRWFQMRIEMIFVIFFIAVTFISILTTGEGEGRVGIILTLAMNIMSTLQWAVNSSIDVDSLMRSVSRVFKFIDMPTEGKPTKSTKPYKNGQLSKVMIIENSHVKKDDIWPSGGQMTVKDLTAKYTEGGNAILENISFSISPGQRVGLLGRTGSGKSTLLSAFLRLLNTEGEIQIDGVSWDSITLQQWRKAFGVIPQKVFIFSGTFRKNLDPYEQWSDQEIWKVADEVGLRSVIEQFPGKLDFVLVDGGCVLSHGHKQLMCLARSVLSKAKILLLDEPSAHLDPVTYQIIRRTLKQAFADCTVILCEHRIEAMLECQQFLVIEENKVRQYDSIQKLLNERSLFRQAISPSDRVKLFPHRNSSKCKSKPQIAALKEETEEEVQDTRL
# Experimental: FIGS. 9A-9E. Characterization of CFTR activation by CFTRact-J027. Short-circuit current measured in FRT cells expressing human wild-type CFTR (FIG. 9A) and ΔF508-CFTR (FIG. 9C) showing responses to indicated concentrations of forskolin (fsk), CFTRact-J027, and VX-770. The ΔF508-CFTR-expressing FRT cells were corrected with 3 μM VX-809 at 37° C. for 24 h before measurement. CFTRinh-172 (Inh-172, 10 μM) was added where indicated. FIG. 9B. CFTRact-J027 concentration-dependent activation of wild-type CFTR Cl^− current (S.E.; n=3 cultures). FIG. 9D. Short-circuit current in mouse colon showing responses to indicated concentrations of forskolin (fsk), CFTRact-J027, and CFTRinh-172. FIG. 9E. Assay of cAMP concentration in FRT cells measured following 10-min incubation with indicated concentrations of forskolin and 5 μM CFTRact-J027. Positive controls included forskolin (100 nM and 20 μM), and forskolin plus 3-isobutyl-1-methylxanthine (IBMX, 100 μM) (mean±SE, n=4-8).
# The increase in current at high CFTRact-J027 was further increased by forskolin, which may be a consequence of activation of a basolateral membrane cAMP-sensitive K^+ channel that increases the driving force for apical membrane Cl^− secretion.
# mouse liver microsomes = assay: In vitro metabolic stability in mouse liver microsomes; type: in vitro ADME
# Experimental: (§2) CFTRact-J027 (5 μM) was incubated for specified times at 37° C. with mouse liver microsomes (1 mg protein/ml; Sigma-Aldrich) in potassium phosphate buffer (100 mM) containing 1 mM NADPH, as described. The mixture was then chilled on ice, and 0.5 ml of ice-cold ethyl acetate was added. Samples were centrifuged for 15 min at 3000 rpm, the supernatant evaporated to dryness, and the residue was dissolved in 100 μL mobile phase (acetonitrile:water, 3:1) for LC/MS and assayed as described above.
# as §2, with “In vitro metabolic stability. CFTRact-J027” for “CFTRact-J027”
# [1] = Pharmacokinetics in mice (plasma LC/MS); type: in vivo, mouse
# Experimental: (§3) All animal experiments were approved by UCSF Institutional Animal Care and Use Committee. Female CD1 mice were treated with 10 mg/kg CFTRact-J027 (saline containing 5% DMSO and 10% Kolliphor HS 15) either intraperitoneally (ip) or orally. Blood was collected at 15, 30, 60, 150, 240 and 360 min after treatment by orbital puncture and centrifuged at 5000 rpm for 15 min to separate plasma. Plasma samples (60 μL) were mixed with 300 μL acetonitrile and centrifuged at 13000 rpm for 20 min, and 90 μL of the supernatant was used for LC/MS. The solvent system consisted of a linear gradient from 5 to 95% acetonitrile over 16 min (0.2 ml/min flow). Mass spectra was acquired on a mass spectrometer (Waters 2695 and Micromass ZQ) using electrospray (+) ionization, mass ranging from 100 to 1500 Da, cone voltage 40 V. Calibration standards were prepared in plasma from untreated mice to which known amounts of CFTRact-J027 were added.
# as §3, with “Pharmacokinetics. All” for “All”
# [2] = Tear film pharmacokinetics (LC/MS of tear washes)
# [3] = Chemical stability in ophthalmic vehicle (LC/MS); type: physicochemical; details: 100 μM, 0.3% CMC in Ringer's solution, 24 h at 40° C.
structure (smiles),measurement,setting,value
"CCN(CC)c1nc(Nc2ccc3ncsc3c2)nc(OC(C(F)(F)F)C(F)(F)F)n1 [6k, N′-(1,3-Benzothiazol-6-yl)-N,N-diethyl-6-[(1,1,1,3,3,3-hexafluoropropan-2-yl)oxy]-1,3,5-triazine-2,4-diamine]",cellular cAMP,cAMP,did not elevate cellular cAMP
same,effect on calcium-activated chloride channels in HT-29 cells,CaCC in HT-29 cells,no activation; also recorded: neither inhibited nor activated
same,increase of cytoplasmic calcium,cytoplasmic calcium,did not
same,inhibition of the ATP-stimulated elevation in cytoplasmic calcium,cytoplasmic calcium,did not
"Nc1ccc([N+](=O)[O-])cc1-c1nc2ccccc2n(Cc2ccccc2)c1=O [CFTRact-J027, 3-(2-amino-5-nitrophenyl)-1-benzylquinoxalin-2(1H)-one]",potentiation of ΔF508-CFTR,ΔF508-CFTR,substantially less potent than ivacaftor; also recorded: only a weak potentiator
same,elimination half-life in microsomes,"mouse liver microsomes; 5 μM, mouse liver microsomes, NADPH",~21 min
same,original compound remaining at 60 min,mouse liver microsomes; 60 min,7%
same,"hepatic microsomal metabolism, in words","mouse liver microsomes; mouse liver microsomes, NADPH",rapid hepatic metabolism; also recorded: rapidly metabolized
same,serum elimination half-life,[1]; 10 mg/kg ip,~16 min
same,serum concentration at 150 min,"[1]; 10 mg/kg ip, 150 min",undetectable
same,"bioavailability, in words",[1]; 10 mg/kg oral,very low bioavailability; also recorded: minimal bioavailability
same,blood levels,[1]; 10 mg/kg oral,< 200 nM
same,serum concentration at other time points,[1]; 10 mg/kg oral,undetectable
same,serum concentration at 30 min,"[1]; 10 mg/kg oral, 30 min",180 nM
"CCN(CC)c1nc(Nc2ccccc2)nc(OC(C(F)(F)F)C(F)(F)F)n1 [CFTRact-K089, N,N-Diethyl-6-[(1,1,1,3,3,3-hexafluoropropan-2-yl)oxy]-N′-phenyl-1,3,5-triazine-2,4-diamine]",amount recovered from tear fluid at six hours,"[2]; 0.1 nmol (2 μL, 50 μM) instilled",0.011 ± 0.004 pmol
same,duration of predicted therapeutic levels in tear fluid,[2]; 0.1 nmol instilled,at least six
same,"tear film bioavailability, in words",[2]; topical,sustained tear film bioavailability
"CNc1nc(Nc2ccccc2)nc(OCC(F)(F)C(F)F)n1 [compound 12, N-methyl-N′-phenyl-6-(2,2,3,3-tetrafluoropropoxy)-1,3,5-triazine-2,4-diamine]",cellular cAMP,cAMP,without causing cAMP or calcium elevation; also recorded: did not elevate cellular cAMP
same,effect on calcium-activated chloride channels in HT-29 cells,CaCC in HT-29 cells,no activation; also recorded: neither inhibited nor activated
same,chemical stability in ophthalmic vehicle,[3],stable at 100 μM in an ophthalmic vehicle; also recorded: remained chemically stable
same,increase of cytoplasmic calcium,cytoplasmic calcium,without causing cAMP or calcium elevation; also recorded: did not
same,inhibition of the ATP-stimulated elevation in cytoplasmic calcium,cytoplasmic calcium,did not
